Patent US20140072604A1, “Block Copolymer For Intraperitoneal Administration Containing Anti-Cancer Agent, Micelle Preparation Thereof, And Cancer Therapeutic Agent Comprising The Micelle Preparation As Active Ingredient” (priority 2009, published 2014)
Where a name gives a salt, the structure may show the parent alone.

Key:
Format in all cases: in vivo, BALB/c nude mouse
[1] = test system: human ovarian cancer cell line ES-2; assay: Life-prolonging effect in nude mouse model for peritoneal disseminated metastasis (ES-2), intraperitoneal administration; details: once three days after tumor transplantation, observed until 80 days
Experimental: Therapeutic effects on peritoneal disseminated metastasis were tested by using a mouse model for peritoneal disseminated metastasis. Specifically, the mouse model for peritoneal disseminated metastasis was prepared by intraperitoneal injection of human ovarian cancer cell line ES-2 (1.0×10^6 cells) to an 8-week old BALB/c nude mouse.
In order to estimate advantageous life-prolonging effects of the present micelle preparation having encapsulated paclitaxel, the model mice were divided into three groups, i.e., 8 mice per group. […] In addition, the drug dosage was determined by converting a clinical dosage for intravenous route (paclitaxel 210 mg/m^2 and paclitaxel micelle preparation: 150 mg/m^2) to those for a mouse using an AUC comparison. […]
1 ml of saline (Control group); 1 ml of saline containing 66.7 mg/kg of irinotecan hydrochloride (66.7 mg/kg CPT-11 administered group); and 1 ml of 5% glucose solution containing the micelle preparation containing 30 mg/kg of SN-38 (30 mg/kg SN-38 micelle administered group) were intraperitoneally administered to the mouse of each group, respectively. […] In addition, the drug dosage was determined as the one-third of the maximum amount allowed for intravenous route administration for a mouse. […]

[2] = test system: human ovarian cancer cell line SHIN-3; assay: Life-prolonging effect in nude mouse model for peritoneal disseminated metastasis (SHIN-3), intraperitoneal administration
Experimental: In order to estimate an effect of intraperitoneal administration of the micelle preparation having encapsulated paclitaxel, a mouse model for peritoneal disseminated metastasis was prepared by intraperitoneal injection of human ovarian cancer cell line SHIN-3 (1.0×10^7 cells) to an 8-week old BALB/c nude mouse. Three groups were created as following: 1 ml of saline (Control group, 18 mice); 1 ml of saline containing […] of paclitaxel (100 mg/kg PTX administered group, 8 mice); and 1 ml of 5% glucose solution containing the micelle preparation containing 50 mg/ml of encapsulated paclitaxel (50 mg/kg PTX micelle administered group, 8 mice) were intraperitoneally administered to the mouse of each group, respectively. The amounts of the ingredients were of by 20 g mouse body weight. The administrations were carried out once after one week of the tumor transplantations. The mice were observed until 120 days after the cell transplantation. The survival rates were recorded and the survival curves was plotted in FIG. 3.

[3] = test system: human stomach cancer cell line MKN45-P; assay: Life-prolonging effect in nude mouse model for peritoneal disseminated metastasis (MKN45-P), intraperitoneal administration; details: 50 mg/kg, once three days after tumor transplantation, observed until 60 days
Experimental: In order to estimate an effect of intraperitoneal administration of a micelle preparation having encapsulated paclitaxel, a mouse model for peritoneal disseminated metastasis was prepared by intraperitoneal injection of human stomach cancer cell line MKN45-P (1.0×10^6 cells) to an 8-week old BALB/c nude mouse. Three groups were created as following: 1 ml of saline (Control group, 8 mice); 1 ml of saline containing 50 mg/ml of paclitaxel (50 mg/kg PTX administered group, 8 mice); and 1 ml of 5% glucose solution containing the micelle preparation containing 25 mg/ml of encapsulated paclitaxel (25 mg/kg PTX micelle administered group, 8 mice) were intraperitoneally administered to the mouse of each group, respectively. The amounts of the ingredients were of by 25 g mouse body weight. The administrations were carried out once after three days of the tumor transplantation. The mice were observed until 60 days after the cell transplantation. The survival rates was recorded and the survival curves was plotted in FIG. 4.

Structure (SMILES) | 50% survival rate, day after transplantation ([1]; 70 mg/kg, Control Day 17) [days] | toxic death ([2]; 100 mg/kg PTX administered group, 8 mice, once) | 50% survival rate, day after transplantation ([2]; 100 mg/kg, once one week after tumor transplantation, observed until 120 days) [days] | 50% survival rate, day after transplantation [3] [days] | 50% survival rate, day after transplantation ([1]; 66.7 mg/kg, Control Day 21) [days]
CC(=O)O[C@H]1C(=O)[C@@]2(C)[C@H]([C@H](OC(=O)c3ccccc3)[C@]3(O)C[C@H](OC(=O)[C@H](O)[C@@H](NC(=O)c4ccccc4)c4ccccc4)C(C)=C1C3(C)C)[C@]1(OC(C)=O)CO[C@@H]1C[C@@H]2O [PTX, paclitaxel] | 44 | two cases of toxic death | 100 | 55 | 
CCc1c2c(nc3ccc(OC(=O)N4CCC(N5CCCCC5)CC4)cc13)-c1cc3c(c(=O)n1C2)COC(=O)[C@]3(O)CC [CPT-11, irinotecan hydrochloride] |  |  |  |  | 56
